From ChEMBL document CHEMBL1134516, “Probing the interaction of dengue virus envelope protein with heparin: assessment of glycosaminoglycan-derived inhibitors” (J Med Chem, 2001)

Test system: Dengue virus
Experiment: Dissociation constant for Dengue virus envelope protein binding by surface plasmon resonance
Format: functional

Cc1ccc(C(=O)Nc2ccc(S(=O)(=O)O)c3cc(S(=O)(=O)O)cc(S(=O)(=O)O)c23)cc1NC(=O)c1cccc(NC(=O)Nc2cccc(C(=O)Nc3cc(C(=O)Nc4ccc(S(=O)(=O)O)c5cc(S(=O)(=O)O)cc(S(=O)(=O)O)c45)ccc3C)c2)c1 [SURAMIN] was tested, and the Kd was 40 nM.
